In brackets after ≈: the same amount, converted by molar mass.
Columns and labels:
C. dubliniensis [1] = assay: Anticandidal activity, well-diffusion method; type: cell-based; settings: 50 μl per 6 mm well, 100 mg/ml, 37° C., 24-48 h
From the text: (§1) The fungal strain was isolated from a soil sample collected from Al-Qassim region, Kingdom of Saudi Arabia (KSA). The malt extract agar (MEA) medium (malt extract, 20 g; peptone, 1 g; dextrose, 20 g; agar, 20 g; distilled water, 1 L) was used for isolation, cultivation, identification and production of fungal secondary metabolites of the fungal isolate and test Candida species. Ten clinically isolated Candida species; namely, Candida albicans, C. dubliniensis, C. famata, C. glabrata, C. inconspicua, C. kefyr, C. krusei, C. norvegensis, C. parapsilosis, and C. tropicalis were used as test microorganisms. The fungal isolate and the test organism were identified at the Microbiology Laboratory, Regional Center for Mycology and Biotechnology, Al-Azhar University, Cairo, Egypt.
(§2) Anticandidal activities of total alcoholic extract of Petriella setifera and the isolated compound (amnomopin) were determined using well-diffusion method according to Zain et al. (2012). Petri plates containing 20 ml of malt extract agar medium were seeded with 48 h cultures of candidal inoculums (1-2×10^7 Colony Forming Units [CFU/ml]). Wells (6 mm in diameter) were cut off into agar and 50 μl of extract and the isolated compound were tested in a concentration of 100 mg/ml and incubated at 37° C. for 24-48h. The assessment of anticandidal activity was based on measurement of the diameter of the inhibition zone formed around the well.

C. famata [2] = assay: Anticandidal activity, well-diffusion method; type: cell-based; settings: 50 μl per 6 mm well, 100 mg/ml, 37° C., 24-48 h
From the text: as §1, §2

C. glabrata [3] = assay: Anticandidal activity, well-diffusion method; type: cell-based; settings: 50 μl per 6 mm well, 100 mg/ml, 37° C., 24-48 h
From the text: as §1, §2

C. inconspicua [4] = assay: Anticandidal activity, well-diffusion method; type: cell-based; settings: 50 μl per 6 mm well, 100 mg/ml, 37° C., 24-48 h
From the text: as §1, §2

C. kefyr [5] = assay: Anticandidal activity, well-diffusion method; type: cell-based; settings: 50 μl per 6 mm well, 100 mg/ml, 37° C., 24-48 h
From the text: as §1, §2

C. krusei [6] = assay: Anticandidal activity, well-diffusion method; type: cell-based; settings: 50 μl per 6 mm well, 100 mg/ml, 37° C., 24-48 h
From the text: as §1, §2

C. norvegensis [7] = assay: Anticandidal activity, well-diffusion method; type: cell-based; settings: 50 μl per 6 mm well, 100 mg/ml, 37° C., 24-48 h
From the text: as §1, §2

C. parapsilosis [8] = assay: Anticandidal activity, well-diffusion method; type: cell-based; settings: 50 μl per 6 mm well, 100 mg/ml, 37° C., 24-48 h
From the text: as §1, §2

C. tropicalis [9] = assay: Anticandidal activity, well-diffusion method; type: cell-based; settings: 50 μl per 6 mm well, 100 mg/ml, 37° C., 24-48 h
From the text: as §1, §2

Candida albicans [10] = assay: Anticandidal activity, well-diffusion method; type: cell-based; settings: C. albicans, 50 μl per 6 mm well, 100 mg/ml, 37° C., 24-48 h
From the text: as §1, §2

C. dubliniensis [11] = assay: Minimum inhibitory concentration, micro-dilution method; type: cell-based; settings: malt extract broth, 37° C., 24-48 h
From the text: as §1
(§3) The minimum inhibitory concentration (MIC) was determined for both total extract of Petriella setifera and the isolated compound by micro-dilution method using serially diluted (2 folds) according to Awaad et al. (2012). The MIC was determined by dilution of total extract and isolated compound of concentrations of 0.0-1000 μg/ml. Equal volume of each extract and malt extract broth were mixed in a test tube. Specifically, 0.1 ml of standardized inoculum (1-2×10^7 CFU/ml) was added in each tube. The tubes were incubated at 37° C. for 24-48 h. Two control tubes; tube containing the growth medium, saline and the inoculum, were maintained for each test batch. The lowest concentration (highest dilution) of the extract that produced no visible candidal growth (no turbidity) when compared with the control tubes were regarded as MIC.

C. famata [12] = assay: as above; type: cell-based; settings: malt extract broth, 37° C., 24-48 h
From the text: as §1, §3

C. glabrata [13] = assay: as above; type: cell-based; settings: malt extract broth, 37° C., 24-48 h
From the text: as §1, §3

C. inconspicua [14] = assay: as above; type: cell-based; settings: malt extract broth, 37° C., 24-48 h
From the text: as §1, §3

C. kefyr [15] = assay: as above; type: cell-based; settings: malt extract broth, 37° C., 24-48 h
From the text: as §1, §3

C. krusei [16] = assay: as above; type: cell-based; settings: malt extract broth, 37° C., 24-48 h
From the text: as §1, §3

C. norvegensis [17] = assay: as above; type: cell-based; settings: malt extract broth, 37° C., 24-48 h
From the text: as §1, §3

C. parapsilosis [18] = assay: as above; type: cell-based; settings: malt extract broth, 37° C., 24-48 h
From the text: as §1, §3

C. tropicalis [19] = assay: as above; type: cell-based; settings: malt extract broth, 37° C., 24-48 h
From the text: as §1, §3

Candida albicans [20] = assay: as above; type: cell-based; settings: C. albicans, malt extract broth, 37° C., 24-48 h
From the text: as §1, §3

Male Wister rats = assay: Sub-chronic toxicity test, liver and kidney functions; type: in vivo
Method: Male Wister rats (weighing about 150-180 g) were divided into 3 equal groups each of 10 rats. Rats of the first group received the vehicle in a dose of 5 mL/kg and left as normal control. Rats of the second and third groups were administered the alcoholic extract of the investigated fungi (500 mg/kg) and the isolated compound (50 mg/kg). All medications were administered orally daily for 15 consecutive days. Animals were maintained under identical conditions with food and water ad libitum for the entire period with close observation. At the end of the experimental period, blood samples were collected from the orbital plexus of rats, 6 h after the last dose. Samples were left to clot at room temperature for 20 min. The obtained sera were collected and used to determine the activity of (AST) aspirate aminotransferase and (ALT) alanine aminotransferase, levels of urea and creatinine were also estimated (Awaad et al. 2014).
The effect of the total alcohol extract of Petriella setifera and isolated compound (Amnomopin) on liver and kidney functions are provided in Table 2. Three groups of animals (n=10) were orally administered the total alcohol extracts (500 mg/kg) and the isolated compound (50 mg/kg) daily for 15 days, while the control group received water orally. After the treatment period, blood samples were collected, sera were separated and different parameters were measured as provided in Table 2. All values were expressed as mean±S.D.

[21] = rat serum, oral daily for 15 days, mean±S.D., n=10

## CC1(C)CCC2(C(=O)O)CCC3(C)C(CCC4C5(C)CCC(O[C@@H]6OC(CO)[C@@H](O)C(O)C6O[C@@H]6OC(CO)[C@@H](O)C(O)C6O)C(C)(C)C5=CCC43C)C2C1 (stereo partly drawn) [Amnomopin, 3β-diglucoside-5, 12-28-oic acid]
C. dubliniensis [1]; Candida dubliniensis, read-out: Diameter of inhibition zone
  zone of inhibition at 100000 µg/mL: 16.2 ± 0.63 mm
C. famata [2]; Debaryomyces hansenii, read-out: Diameter of inhibition zone
  zone of inhibition at 100000 µg/mL: 20.1 ± 1.5 mm
C. glabrata [3]; Nakaseomyces glabratus, read-out: Diameter of inhibition zone
  zone of inhibition at 100000 µg/mL: 16.3 ± 0.63 mm
C. inconspicua [4]; Pichia inconspicua, read-out: Diameter of inhibition zone
  zone of inhibition at 100000 µg/mL: 18.3 ± 2.1 mm
C. kefyr [5]
  Diameter of inhibition zone: 24.2 ± 2.10 mm
C. kefyr [5]; Kluyveromyces marxianus, read-out: Diameter of inhibition zone
  zone of inhibition at 100000 µg/mL: 24.2 ± 2.1 mm
C. krusei [6]; Pichia kudriavzevii, read-out: Diameter of inhibition zone
  zone of inhibition at 100000 µg/mL: 20.9 ± 0.58 mm
C. norvegensis [7]
  Diameter of inhibition zone: 22.1 ± 1.20 mm
C. norvegensis [7]; Pichia norvegensis, read-out: Diameter of inhibition zone
  zone of inhibition at 100000 µg/mL: 22.1 ± 1.2 mm
C. parapsilosis [8]; Lodderomyces parapsilosis, read-out: Diameter of inhibition zone
  zone of inhibition at 100000 µg/mL: 18.4 ± 0.72 mm
C. tropicalis [9]; Candida tropicalis, read-out: Diameter of inhibition zone
  zone of inhibition at 100000 µg/mL: 19.4 ± 1.2 mm
Candida albicans [10]
  Diameter of inhibition zone: 23.1 ± 2.10 mm
Candida albicans [10]; Candida albicans, read-out: Diameter of inhibition zone
  zone of inhibition at 100000 µg/mL: 23.1 ± 2.1 mm
C. dubliniensis [11]; Candida dubliniensis
  MIC: 62.5 µg/mL (≈ 80 µM)
C. famata [12]; Debaryomyces hansenii
  MIC: 3.9 µg/mL (≈ 4.99 µM)
C. glabrata [13]; Nakaseomyces glabratus
  MIC: 62.5 µg/mL (≈ 80 µM)
C. inconspicua [14]; Pichia inconspicua
  MIC: 32.2 µg/mL (≈ 41.3 µM)
C. kefyr [15]; Kluyveromyces marxianus
  MIC: 0.49 µg/mL (≈ 0.627 µM)
C. kefyr [15]
  Minimum Inhibitory Concentration (MIC): 00.98 µg/mL
C. krusei [16]; Pichia kudriavzevii
  MIC: 1.95 µg/mL (≈ 2.5 µM)
C. norvegensis [17]; Pichia norvegensis
  MIC: 0.98 µg/mL (≈ 1.25 µM)
C. norvegensis [17]
  Minimum Inhibitory Concentration (MIC): 01.95 µg/mL
C. parapsilosis [18]; Lodderomyces parapsilosis
  MIC: 32.2 µg/mL (≈ 41.3 µM)
C. tropicalis [19]; Candida tropicalis
  MIC: 7.81 µg/mL (≈ 10 µM)
Candida albicans [20]
  Minimum Inhibitory Concentration (MIC): 01.95 µg/mL
Candida albicans [20]; listed as amnomopin
  Minimum Inhibitory Concentration (MIC): 00.49 µg/mL
Male Wister rats; [21]
  Kidney function Blood urea: 30.85 ± 1.83 mg/dL
  Kidney function Serum Creatinine: 0.38 ± 0.02 mg/dL
  Liver function ALT: 146.30 ± 4.30 U/l
  Liver function AST: 66.72 ± 2.82 U/l
Male Wister rats; rats, oral dosing for 15 days, extract 500 mg/kg, compound 50 mg/kg
  effect on the activity of ALT, AST and the levels of blood urea and serum creatinine: did not show any significant effect

## C[C@@H]1[C@H](O)[C@@H](C)/C=C/C=C/C=C/C=C/C=C/C=C/C=C/[C@H](O[C@@H]2O[C@H](C)[C@@H](O)[C@H](N)[C@@H]2O)C[C@@H]2O[C@](O)(C[C@@H](O)C[C@@H](O)[C@H](O)CC[C@@H](O)C[C@@H](O)CC(=O)O[C@H]1C)C[C@H](O)[C@H]2C(=O)O [Amphotericin B, reference compound]
C. dubliniensis [1]
  Diameter of inhibition zone: 24.1 ± 1.20 mm
C. famata [2]
  Diameter of inhibition zone: 20.4 ± 0.63 mm
C. glabrata [3]
  Diameter of inhibition zone: 19.3 ± 2.10 mm
C. inconspicua [4]
  Diameter of inhibition zone: 21.9 ± 1.20 mm
C. kefyr [5]
  Diameter of inhibition zone: 26.3 ± 1.20 mm
C. kefyr [5]; listed as amphotericin B
  Diameter of inhibition zone: 26.3±1.20 mm
C. krusei [6]
  Diameter of inhibition zone: 23.7 ± 0.63 mm
C. norvegensis [7]
  Diameter of inhibition zone: 28.7 ± 0.72 mm
C. parapsilosis [8]
  Diameter of inhibition zone: 32.4 ± 0.58 mm
C. tropicalis [9]
  Diameter of inhibition zone: 19.6 ± 1.50 mm
Candida albicans [10]
  Diameter of inhibition zone: 26.3 ± 1.20 mm
C. dubliniensis [11]
  Minimum Inhibitory Concentration (MIC): 00.49 µg/mL
C. famata [12]
  Minimum Inhibitory Concentration (MIC): 03.90 µg/mL
C. glabrata [13]
  Minimum Inhibitory Concentration (MIC): 03.90 µg/mL
C. inconspicua [14]
  Minimum Inhibitory Concentration (MIC): 00.98 µg/mL
C. kefyr [15]
  Minimum Inhibitory Concentration (MIC): 00.49 µg/mL
C. krusei [16]
  Minimum Inhibitory Concentration (MIC): 00.98 µg/mL
C. norvegensis [17]
  Minimum Inhibitory Concentration (MIC): 00.49 µg/mL
C. parapsilosis [18]
  Minimum Inhibitory Concentration (MIC): 00.49 µg/mL
C. tropicalis [19]
  Minimum Inhibitory Concentration (MIC): 03.90 µg/mL
Candida albicans [20]
  Minimum Inhibitory Concentration (MIC): 00.49 µg/mL

— patent publication US9629885B1, “Method for treating candidiasis” (KING SAUD UNIVERSITY, priority 2016, dated 2017)
